Tested on: 598228-144-R-J1-PDC complex spheroids, viability
Assay: Anticancer human tumor 598228-144-R-J1-PDC patient-derived serous endometrial adenocarcinoma cell line growth inhibition [CLK]
Conditions: for IC50: curve of first compound; for viability, T/C: stronger effect = lower value; active means viability on the fitted dose curve at most 10% of control; inactive means the rest
Outline: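 Patient-derived tumor cells grown as complex spheroids with HUVEC endothelial cells and mesenchymal stem cells, treated with drug combinations. Concentrations descend in half-log steps from near clinical Cmax, or from 10 microM if Cmax unknown.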
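Further: spheroids exposed to compounds for seven days before readout.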
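Wherever viability, T/C is given: 100% = DMSO vehicle control wells.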

CC(C)CC(NC(=O)C(Cc1ccccc1)NC(=O)c1cnccn1)B(O)O (configuration not stated) + CN1CCN(c2cc(C(=O)Nc3cc4cc(-c5cnn(C)c5)ccc4cn3)ccn2)CC1
inactive: viability, T/C (second compound 0.0316 µM, first compound 0.000949 µM) 124% | viability, T/C (second compound 0.0316 µM, first compound 0.003 µM) 68.6% | viability, T/C (second compound 0.1 µM, first compound 0.000949 µM) 137% | viability, T/C (second compound 0.1 µM, first compound 0.003 µM) 35.3% | viability, T/C (second compound 0.316 µM, first compound 0.000949 µM) 19.9%
active: viability, T/C (second compound 0.0316 µM, first compound 0.00949 µM) 0.89% | viability, T/C (second compound 0.0316 µM, first compound 0.03 µM) 0.39% | viability, T/C (second compound 0.0316 µM, first compound 0.0949 µM) 0.34% | viability, T/C (second compound 0.0316 µM, first compound 0.3 µM) 0.29% | viability, T/C (second compound 0.1 µM, first compound 0.00949 µM) 0.57% | viability, T/C (second compound 0.1 µM, first compound 0.03 µM) 0.37% | viability, T/C (second compound 0.1 µM, first compound 0.0949 µM) 0.35% | viability, T/C (second compound 0.1 µM, first compound 0.3 µM) 2.83% | viability, T/C (second compound 0.316 µM, first compound 0.003 µM) 2.9% | viability, T/C (second compound 0.316 µM, first compound 0.00949 µM) 0.32% | viability, T/C (second compound 0.316 µM, first compound 0.03 µM) 0.26% | viability, T/C (second compound 0.316 µM, first compound 0.0949 µM) 0.88% | viability, T/C (second compound 0.316 µM, first compound 0.3 µM) 6.75% | viability, T/C (second compound 1 µM, first compound 0.000949 µM) 0.79% | viability, T/C (second compound 1 µM, first compound 0.003 µM) 0.61% | viability, T/C (second compound 1 µM, first compound 0.00949 µM) 0.36% | viability, T/C (second compound 1 µM, first compound 0.03 µM) 0.23% | viability, T/C (second compound 1 µM, first compound 0.0949 µM) 1.86% | viability, T/C (second compound 1 µM, first compound 0.3 µM) 4.83% | viability, T/C (second compound 3.16 µM, first compound 0.000949 µM) 1.18% | viability, T/C (second compound 3.16 µM, first compound 0.003 µM) 1.87% | viability, T/C (second compound 3.16 µM, first compound 0.00949 µM) 0.3% | viability, T/C (second compound 3.16 µM, first compound 0.03 µM) 0.21% | viability, T/C (second compound 3.16 µM, first compound 0.0949 µM) 1.26% | viability, T/C (second compound 3.16 µM, first compound 0.3 µM) 2.5% | viability, T/C (second compound 10 µM, first compound 0.000949 µM) 0.91% | viability, T/C (second compound 10 µM, first compound 0.003 µM) 2.49% | viability, T/C (second compound 10 µM, first compound 0.00949 µM) 0.22% | viability, T/C (second compound 10 µM, first compound 0.03 µM) 0.2% | viability, T/C (second compound 10 µM, first compound 0.0949 µM) 3.91% | viability, T/C (second compound 10 µM, first compound 0.3 µM) 3.86%
< 0.949 nM: IC50 (second compound 0.316 µM) | IC50 (second compound 1 µM) | IC50 (second compound 3.16 µM) | IC50 (second compound 10 µM)
2.54 nM: IC50 (second compound 0.1 µM)
4.12 nM: IC50 (second compound 0.0316 µM)

— PubChem BioAssay AID2060614 (Molecular Pharmacology Branch, DTP, NCI, 2025)
